From patent US6998129B2, “Cosmetic or dermatological composition comprising an association between an elastase inhibitor compound of the N-acylaminoamide family and at least one anti-inflammatory compound” (L'Oreal, priority 2001, dated 2006)

Columns and labels:
[1] = target: T1, human leukocyte elastase (ELH) (Homo sapiens, UniProt P08246); assay: in vitro anti-elastasic activity on Me-OSAAPV-p-NA substrate; type: biochemical; conditions: even in a small amount
T1 sequence (P08246 30-267): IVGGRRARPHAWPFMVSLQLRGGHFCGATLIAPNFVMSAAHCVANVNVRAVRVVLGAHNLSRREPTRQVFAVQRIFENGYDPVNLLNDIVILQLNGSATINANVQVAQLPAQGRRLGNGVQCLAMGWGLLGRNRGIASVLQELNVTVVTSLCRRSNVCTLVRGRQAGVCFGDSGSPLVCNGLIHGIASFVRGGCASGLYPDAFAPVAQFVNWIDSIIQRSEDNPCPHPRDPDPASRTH
Procedure: The anti-elastasic activity of compounds according to the invention is determined in vitro compared to the human leukocyte elastase (ELH).
The test is performed in the following way:
A Me-OSAAPV-p-NA (methyl-O-succinate alanine alanine proline valine-p-nitroaniline) substrate, onto which ELH (40 milli-units per ml) and 0.1% of the compound to be tested are applied, is left for incubating at 37° C. for 60 minutes.
Thereafter, the % inhibition of the control elastase activity is determined by spectrophotometry.

[2] = system: surviving human skins treated by a human leukocyte elastase (ELH); assay: ex vivo protection of elastic fibres in fresh human skin cuts treated with ELH for 2 hours (Example 4); type: cell-based; conditions: 20° C.
Procedure: (§1) The ex vivo activity of example 2 compound has been evaluated on surviving human skins treated by a human leukocyte elastase (ELH).
(§2) The test is performed the following way.
Fresh human skin cuts from two different donors are treated for 2 hours, at 20° C., by 20 μl of a buffer solution (pH 7.4) optionally comprising 10 μg/ml ELH and optionally 0.1% of the compound to be tested, optionally previously put in solution in ethanol.
The elastic fibres are colored in blue using catechin (+) and quantified morphometrically using a computer assisted image analysis. The average derma surface percentage occupied by elastic fibres Is evaluated this way.

[3] = system: surviving human skins treated by a human leukocyte elastase (ELH); assay: ex vivo protection of elastic fibres in human skin fragments kept surviving 10 days with ELH (Example 5); type: cell-based; conditions: 0.5 μg ELH per ml; 5 μl of 0.2% solution in ethanol every two days; 10 days at 37° C.; three donors; control 7.4%, ELH alone 5.1%
Procedure: as §1, §2
Fragments of normal human skin from three different donors are deposited in inserts positioned in culture wells. Culture medium added with antibiotics is added in the bottom of the wells. A pass is performed through slow diffusion between the two compartments via a porous membrane (pore size: 12 μm).
(§3) The culture medium is renewed every three days.
On the skin fragments, optionally 0.5 μg ELH per ml culture medium are added.
5 μl of the compound to be tested are also added every two days, previously put in solution at 0.2% by weight in ethanol.
The skins are kept surviving for 10 days at 37° C.
The elastic fibres are colored in blue using catechin (+) and quantified morphometrically using a computer assisted image analysis, The average derma surface percentage occupied by elastic fibres is evaluated this way.

[4] = system: surviving human skins irradiated by UVA (8 J/cm^2); assay: protection of elastic fibres and collagen in surviving human skins irradiated by UVA (Example 6); type: cell-based; conditions: UVA 8 J/cm^2 once, 5 μl of 0.2% solution every two days, 7 days at 37° C.
Procedure: The activity of the example 2 compound has been evaluated on surviving human skins irradiated by UVA (8 J/cm^2).
as §2
Fragments of normal human skin from four different donors are deposited in inserts positioned in culture wells. Culture medium added with antibiotics is added in the bottom of the wells. A pass is performed through slow diffusion between the two compartments via a porous membrane (pore size: 12 μm).
as §3
On the skin fragments, every two days, 5 μl of the compound to be tested are added, previously put in solution at 0.2% wt in ethanol.
The skins are kept surviving for 7 days at 37° C.
The skins are radiated once at 8 J/cm^2 (RMX-3W Vilbert-Lourmat lamp).
The elastic fibres are colored in blue using catechin (+) and quantified morphometrically using a computer assisted image analysis. The average derma surface percentage occupied by elastic fibres is evaluated this way.

CC(=O)N(c1cccc(C(F)(F)F)c1)C(C(=O)NCC(=O)O)C(C)C (stereo not drawn) [Example 2, {2-[acetyl-(3-trifluoromethyl-phenyl)-amino]-3-méthyl-butyrylamino}acetic acid]
inhibition of the elastase activity (in words) [1]: strong inhibition | % Surface occupied by elastic fibres ([2]; Skin 1, 10 μg/ml ELH + 0.1% compound, control 12.7%, ELH alone 4.85%): 13.95% | % Surface occupied by elastic fibres ([2]; Skin 2, 10 μg/ml ELH + 0.1% compound, control 15.25%, ELH alone 6.85%): 11.85% | % Surface occupied by elastic fibres [3]: 7.1% | Elastic fibres morphometric analysis (superficial derma) ([4]; untreated 6.75%, UVA alone 3.9%): 6.8% | Collagen morphometric analysis (superficial derma) ([4]; untreated 87%, UVA alone 81%): 92%
